Results: the CheMixHub viscosity set

Test: xn = mol fraction of the nth substance listed

COCCOCCOC + CCCCO
viscosity [mPa·s], 101 kPa
Conditions	x1 = 0.1051	x1 = 0.2018	x1 = 0.3019	x1 = 0.4029	x1 = 0.5049	x1 = 0.6017	x1 = 0.7049	x1 = 0.7983	x1 = 0.9023
298.15 K	1.866	1.542	1.304	1.178	1.103	1.048	1.019	0.998	0.989
308.15 K	1.48	1.252	1.074	0.983	0.924	0.883	0.863	0.849	0.842
318.15 K	1.186	1.028	0.906	0.827	0.782	0.762	0.74	0.73	0.723

COCCOCCOC + CCCCCCCCCO
101 kPa
Conditions	viscosity [mPa·s]
293.15 K, x1 = 0.03749	9.714
293.15 K, x1 = 0.09901	7.617
293.15 K, x1 = 0.1933	5.424
293.15 K, x1 = 0.2971	3.978
293.15 K, x1 = 0.4043	3.002
293.15 K, x1 = 0.4948	2.43
293.15 K, x1 = 0.597	1.978
293.15 K, x1 = 0.6959	1.641
293.15 K, x1 = 0.822	1.36
293.15 K, x1 = 0.9135	1.201
293.15 K, x1 = 0.9364	1.177
303.15 K, x1 = 0.03786	6.826
303.15 K, x1 = 0.1002	5.439
303.15 K, x1 = 0.1822	4.165
303.15 K, x1 = 0.2967	3.028
303.15 K, x1 = 0.4005	2.353
303.15 K, x1 = 0.5022	1.911
303.15 K, x1 = 0.5943	1.603
303.15 K, x1 = 0.7009	1.347
303.15 K, x1 = 0.7989	1.167
303.15 K, x1 = 0.894	1.038
303.15 K, x1 = 0.9511	0.975
313.15 K, x1 = 0.03928	4.899
313.15 K, x1 = 0.1017	4.015
313.15 K, x1 = 0.198	3.05
313.15 K, x1 = 0.304	2.349
313.15 K, x1 = 0.3952	1.91
313.15 K, x1 = 0.5025	1.559
313.15 K, x1 = 0.5982	1.312
313.15 K, x1 = 0.6977	1.134
313.15 K, x1 = 0.7914	1.001
313.15 K, x1 = 0.8971	0.884
313.15 K, x1 = 0.9456	0.842

Oc1ccccc1 + Cc1cccc(O)c1
298.15 K, 101 kPa
Conditions	viscosity [mPa·s]
x1 = 0.1259	12.5
x1 = 0.2449	11.69
x1 = 0.3137	11.31
x1 = 0.3848	10.95
x1 = 0.4502	10.7
x1 = 0.5174	10.4
x1 = 0.6352	9.961
x1 = 0.7325	9.698
x1 = 0.819	9.398
x1 = 0.8921	9.206
x1 = 0.9301	9.105

COCCOCCOC + COC(=O)c1ccccc1
viscosity [mPa·s], 101.33 kPa
Conditions	x1 = 0.1017	x1 = 0.1985	x1 = 0.3026	x1 = 0.3989	x1 = 0.4978	x1 = 0.599	x1 = 0.6958	x1 = 0.7991	x1 = 0.8979
298.15 K	1.707	1.622	1.532	1.448	1.367	1.286	1.209	1.129	1.055
303.15 K	1.542	1.467	1.389	1.317	1.245	1.173	1.105	1.036	0.971
308.15 K	1.401	1.334	1.264	1.2	1.137	1.073	1.014	0.953	0.894
313.15 K	1.279	1.218	1.155	1.1	1.044	0.987	0.934	0.879	0.828
318.15 K	1.169	1.116	1.061	1.012	0.962	0.911	0.862	0.814	0.768

CCCO + CCO
101 kPa
Conditions	viscosity [mPa·s]
293.15 K, x2 = 0.5	1.564
293.15 K, x2 = 0.75	1.34
298.15 K, x2 = 0.158	1.759
298.15 K, x2 = 0.25	1.64
298.15 K, x2 = 0.303	1.64
298.15 K, x2 = 0.439	1.522
298.15 K, x2 = 0.5	1.407
298.15 K, x2 = 0.566	1.408
298.15 K, x2 = 0.684	1.319
298.15 K, x2 = 0.796	1.233
298.15 K, x2 = 0.902	1.169
303.15 K, x2 = 0.25	1.47
303.15 K, x2 = 0.5	1.26
308.15 K, x2 = 0.25	1.314
308.15 K, x2 = 0.5	1.139
308.15 K, x2 = 0.75	0.99
313.15 K, x2 = 0.25	1.183
313.15 K, x2 = 0.5	1.032
313.15 K, x2 = 0.75	0.903
318.15 K, x2 = 0.5	0.938
318.15 K, x2 = 0.75	0.824
323.15 K, x2 = 0.25	0.969
323.15 K, x2 = 0.5	0.854
323.15 K, x2 = 0.75	0.755

Oc1ccccc1 + O=C1CCCCC1
298.15 K, 101.3 kPa
Conditions	viscosity [mPa·s]
x2 = 0.79	2.24
x2 = 0.9	2.02

CNc1ccccc1 + CCCO
viscosity [mPa·s], 101.33 kPa
Conditions	x1 = 0.1008	x1 = 0.1995	x1 = 0.2999	x1 = 0.4015	x1 = 0.5012	x1 = 0.6016	x1 = 0.7016	x1 = 0.8003	x1 = 0.9016
303.15 K	1.608	1.532	1.502	1.494	1.502	1.527	1.551	1.61	1.688
308.15 K	1.433	1.37	1.345	1.337	1.347	1.368	1.392	1.446	1.512
313.15 K	1.29	1.235	1.21	1.204	1.219	1.235	1.26	1.306	1.347
318.15 K	1.161	1.116	1.096	1.092	1.097	1.123	1.145	1.188	1.247
323.15 K	1.051	1.01	1	0.9995	1.012	1.026	1.047	1.091	1.142

Oc1ccccc1 + c1ccccc1
Conditions	viscosity [mPa·s]
293.15 K, 101 kPa, x1 = 0.0507	0.683
293.15 K, 101 kPa, x1 = 0.0831	0.724
293.15 K, 101 kPa, x1 = 0.1719	0.865
293.15 K, 101 kPa, x1 = 0.2846	1.126
293.15 K, 101 kPa, x1 = 0.3763	1.401
293.15 K, 101 kPa, x1 = 0.4837	1.911
293.15 K, 101 kPa, x1 = 0.5924	2.642
293.15 K, 101 kPa, x1 = 0.7038	3.811
293.15 K, 101 kPa, x1 = 0.8043	5.35
298.15 K, 101.33 kPa, x1 = 0.083	0.6592
298.15 K, 101.33 kPa, x1 = 0.181	0.8516
298.15 K, 101.33 kPa, x1 = 0.2	0.841
298.15 K, 101.33 kPa, x1 = 0.239	0.9218
298.15 K, 101.33 kPa, x1 = 0.279	1.037
298.15 K, 101.33 kPa, x1 = 0.37	1.157
298.15 K, 101.33 kPa, x1 = 0.478	1.696
298.15 K, 101.33 kPa, x1 = 0.5	1.711
298.15 K, 101.33 kPa, x1 = 0.522	1.849
298.15 K, 101.33 kPa, x1 = 0.619	2.54
298.15 K, 101.33 kPa, x1 = 0.658	2.783
298.15 K, 101.33 kPa, x1 = 0.692	3.172
298.15 K, 101.33 kPa, x1 = 0.762	3.936
298.15 K, 101.33 kPa, x1 = 0.786	4.424
323.15 K, 101.33 kPa, x1 = 0.2	0.568
323.15 K, 101.33 kPa, x1 = 0.5	0.968

COCCOCCOC + CCCCCCCCCCCCCCCC
viscosity [mPa·s], 101.33 kPa
Conditions	x1 = 0.1013	x1 = 0.2067	x1 = 0.3071	x1 = 0.403	x1 = 0.5078	x1 = 0.6013	x1 = 0.7004	x1 = 0.7997	x1 = 0.9021
298.15 K	2.629	2.359	2.101	1.9	1.721	1.568	1.4	1.262	1.106
308.15 K	2.107	1.885	1.712	1.552	1.414	1.29	1.173	1.058	0.934
318.15 K	1.69	1.515	1.385	1.288	1.178	1.08	0.984	0.89	0.799

CC=CC(=O)O + c1ccccc1
viscosity [mPa·s], 101 kPa
Conditions	298.15 K	303.15 K	313.15 K	323.15 K
x1 = 0.0503	0.6275	0.5854	0.5132	0.4526
x1 = 0.102	0.6591	0.6129	0.5349	0.472
x1 = 0.1492	0.6902	0.6364	0.5555	0.4889

CCCCCCN + C1CCCCC1
303.15 K, 101 kPa
Conditions	viscosity [mPa·s]
x2 = 0.1064	0.7192
x2 = 0.2992	0.7005
x2 = 0.4953	0.7021
x2 = 0.5974	0.7073
x2 = 0.6964	0.7145
x2 = 0.7966	0.72
x2 = 0.898	0.7541

COC(=O)OC + CCCCCC
Conditions	viscosity [mPa·s]
298.15 K, 101 kPa, x1 = 0.0961	0.2912

CC[P+](c1ccccc1)(c1ccccc1)c1ccccc1.[Br-] + CN(CCO)CCO
viscosity [mPa·s], 100 kPa
Conditions	293.15 K	303.15 K	313.15 K	323.15 K
x1 = 0.05673	152.7	81.77	47.16	29.08
x1 = 0.08776	192.3	100.3	56.67	34.34
x1 = 0.1208	238	121	66.81	39.76

OC(C(F)(F)F)C(F)(F)F + c1ccccc1
viscosity [mPa·s], 101 kPa
Conditions	x1 = 0.04927	x1 = 0.1096	x1 = 0.1764	x1 = 0.2481	x1 = 0.3333	x1 = 0.4173	x1 = 0.5478	x1 = 0.6489	x1 = 0.8774
298.15 K	0.595	0.589	0.583	0.585	0.612	0.648	0.743	0.834	1.216
313.15 K	0.481	0.475	0.466	0.471	0.486	0.508	0.561	0.617	0.818
323.15 K	0.425	0.423	0.412	0.414	0.425	0.441	0.482	0.521	0.658
